For 4 compounds, EC50 and Emax results are on record in patent publication US20210147381A1, “1,2,3,4-SUBSTITUTED QUINOLINE COMPOUNDS AS SIP MODULATORS” (AbbVie Deutschland GmbH & Co. KG, priority 2017, published 2021).

Where a name gives a salt, the structure may show the parent alone. Where only a bound is given, the exact number is not on record here.

Format in all cases: cell-based
For assay [1], the target named is T1, human S1P3 receptor (S1PR3) (Homo sapiens, UniProt Q99500).
T1 construct: host or cells: CHO-K1
T1 sequence (Q99500 whole entry): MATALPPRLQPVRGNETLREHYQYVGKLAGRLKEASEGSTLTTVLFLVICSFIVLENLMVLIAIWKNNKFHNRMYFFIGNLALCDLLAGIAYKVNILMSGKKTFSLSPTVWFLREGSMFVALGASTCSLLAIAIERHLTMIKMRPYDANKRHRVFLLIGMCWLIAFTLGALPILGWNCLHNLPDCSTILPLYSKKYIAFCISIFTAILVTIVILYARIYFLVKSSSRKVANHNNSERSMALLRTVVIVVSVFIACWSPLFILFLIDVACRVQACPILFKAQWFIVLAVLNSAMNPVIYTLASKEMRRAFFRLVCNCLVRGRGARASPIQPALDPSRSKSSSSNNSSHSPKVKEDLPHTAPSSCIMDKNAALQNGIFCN
Kind of assay: Intracellular Ca2+ release (method 1), agonist potency, S1P3. The settings on record: CHO-K1 cells expressing human S1PR3. The essentials: (§1)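 CHO-K1 cells co-expressing the human S1P receptor, aequorin and Gq/i5 were loaded with Calcium 5 dye (1 h, 37° C), then equilibrated 45 min at RT in HBSS/20 mM Hepes/2.5 mM probenecid/0.1% BSA, pH 7.4. Fluorescence upon serially diluted compound fitted by 4-parameter logistic; EC50 and Emax normalized to phospho-fingolimod (100%).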

In assay [2] the target is T2, human S1P4 receptor (S1PR4) (Homo sapiens, UniProt O95977).
T2 construct: host or cells: CHO-K1
T2 sequence (O95977 1-384): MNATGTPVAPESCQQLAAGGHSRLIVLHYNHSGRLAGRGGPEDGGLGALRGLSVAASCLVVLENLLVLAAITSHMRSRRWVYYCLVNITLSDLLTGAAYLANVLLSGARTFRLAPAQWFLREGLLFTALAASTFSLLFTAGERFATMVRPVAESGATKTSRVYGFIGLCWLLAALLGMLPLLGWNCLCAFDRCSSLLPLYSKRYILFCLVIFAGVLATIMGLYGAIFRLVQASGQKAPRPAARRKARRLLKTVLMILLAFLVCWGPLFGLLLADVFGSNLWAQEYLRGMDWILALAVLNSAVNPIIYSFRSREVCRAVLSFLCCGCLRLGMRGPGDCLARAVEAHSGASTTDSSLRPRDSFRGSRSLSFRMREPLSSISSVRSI
The assay is described as follows: Intracellular Ca2+ release (method 1), agonist potency, S1P4. As to conditions: CHO-K1 cells expressing human S1PR4. The essentials: as §1

The target in assay [3] is T3, human S1P1 receptor (S1PR1) (Homo sapiens, UniProt P21453).
T3 construct: host or cells: CHO-K1
T3 sequence (P21453 whole entry): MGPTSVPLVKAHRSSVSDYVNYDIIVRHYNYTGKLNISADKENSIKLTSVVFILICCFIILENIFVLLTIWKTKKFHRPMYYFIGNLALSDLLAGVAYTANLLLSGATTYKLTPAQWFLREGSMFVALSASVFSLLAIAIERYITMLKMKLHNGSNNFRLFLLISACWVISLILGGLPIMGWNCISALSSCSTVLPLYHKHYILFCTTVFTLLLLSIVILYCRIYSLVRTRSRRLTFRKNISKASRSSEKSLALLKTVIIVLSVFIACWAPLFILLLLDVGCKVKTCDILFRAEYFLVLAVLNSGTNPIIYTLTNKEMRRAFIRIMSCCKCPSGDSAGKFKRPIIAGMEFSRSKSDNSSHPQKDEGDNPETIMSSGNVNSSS
The assay is described as follows: Intracellular Ca2+ release (method 1), agonist potency, S1P1. As to conditions: CHO-K1 cells expressing human S1PR1. The essentials:
as §1

Assay [4] addresses T4, human S1P5 receptor (S1PR5) (Homo sapiens, UniProt Q9H228).
T4 construct: host or cells: CHO-K1
Kind of assay: Intracellular Ca2+ release (method 1), agonist potency and efficacy, S1P5. The settings on record: for Emax: maximum effect in % of reference agonist phospho-fingolimod (100%), read-out: hS1P5 EMax; for EC50: recombinant CHO-K1 cells expressing human S1PR5, aequorin, Gq/i5, Ca2+ release, read-out: S1P5 EC50 range. The essentials: as §1

T4 sequence (Q9H228 whole entry): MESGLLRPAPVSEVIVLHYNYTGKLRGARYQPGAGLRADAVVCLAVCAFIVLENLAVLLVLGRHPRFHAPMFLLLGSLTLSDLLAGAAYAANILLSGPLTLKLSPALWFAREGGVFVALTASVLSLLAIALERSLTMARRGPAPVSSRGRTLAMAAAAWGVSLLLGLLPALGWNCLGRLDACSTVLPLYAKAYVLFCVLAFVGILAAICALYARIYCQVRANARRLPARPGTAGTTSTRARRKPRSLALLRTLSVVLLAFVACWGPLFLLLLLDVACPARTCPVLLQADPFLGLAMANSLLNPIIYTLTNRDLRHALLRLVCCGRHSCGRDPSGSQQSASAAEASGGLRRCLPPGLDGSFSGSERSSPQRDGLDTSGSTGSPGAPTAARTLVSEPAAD

Take `CC(C)c1ccc(C#Cc2ccc3c(c2)C2(CC2)CN(CCC(=O)O)C3)cc1` [Compound 31, 3-(6′-((4-isopropylphenyl)ethynyl)-1′H-spiro[cyclopropane-1,4′-isoquinolin]-2′(3′H)-yl)propanoic acid acetic acid salt (1:1)]: the EC50 in assay [1] was more than 1000 nM; in assay [2] (cells given as bound), more than 1000 nM; in assay [3] it was 100 to 1000 nM; in assay [4], less than 10 nM. Further, in assay [4], the Emax was more than 100%.

Consider `O=C(O)CCN1Cc2ccc(C#Cc3cc(F)cc(F)c3)cc2C2(CC2)C1` [Compound 32, 3-(6′-((3,5-difluorophenyl)ethynyl)-1′H-spiro[cyclopropane-1,4′-isoquinolin]-2′(3′H)-yl)propanoic acid acetic acid salt (1:1)], for which the EC50 was more than 1000 nM in assay [1], 100 to 1000 nM in assay [2], more than 1000 nM in assay [3] (cells given as bound) and less than 10 nM in assay [4]. Also, the Emax in assay [4] lay within 50 to 100%.

On to `O=C(O)CCCN1Cc2ccc(OCc3ccccc3Cl)cc2C2(CC2)C1` [Compound 25, 4-(6′-((2-Chlorobenzyl)oxy)-1′H-spiro[cyclopropane-1,4′-isoquinolin]-2′(3′H)-yl)butanoic acid], for which the EC50 was more than 1000 nM in assay [1], 100 to 1000 nM in assay [2], more than 1000 nM in assay [3] (cells given as bound) and less than 10 nM in assay [4]. In assay [4], the Emax lay in the range of 50 to 100%.

For `O=C(O)CCN1Cc2ccc(C#Cc3ccsc3)cc2C2(CC2)C1` [Compound 38, 3-(6′-(thiophen-3-ylethynyl)-1′H-spiro[cyclopropane-1,4′-isoquinolin]-2′(3′H)-yl)propanoic acid], the concentration for a half-maximal effect (EC50) in assay [1] was more than 1000 nM; in assay [2] (cells given as bound), more than 1000 nM; in assay [3] (cells given as bound) it was more than 1000 nM; in assay [4], 10 to 100 nM. Moreover, in assay [4], the Emax lay in the range of 50 to 100%.
